Earlier results on one molecule are cited in paper PMC9658545, “From Nature to Synthetic Compounds: Novel 1(N),2,3 Trisubstituted-5-oxopyrrolidines Targeting Multiple Myeloma Cells” (International Journal of Molecular Sciences, 2022).

SMILES strings stand for the structures. Values after ≈ are worked out from the molar mass of the structure shown.

One data set has as its system proteasome. Set-up: method as in PMID 31323932. To be noted: cited from earlier work.
The test system of data set [1] is human multiple myeloma RPMI 8226 cells. Set-up: method as in PMID 31323932. To be noted: at 24 h; cited from earlier work.
Details of data set [2]: method as in PMID 31323932. To be noted: cited from earlier work.
On the set-up of data set [3]: method as in PMID 31323932. To be noted: cited from earlier work. The source holds these as a separate data set.

With `COC(=O)C1OC(=O)CC1(O)C(=O)OC` (stereo not shown) [Hib-ester], in the data set on proteasome, the proteasome inhibition result is recorded as “inhibit proteasome”. In data set [1], the “IC50 (antiproliferative properties)” value was 450 µg/mL (≈ 2060 µM). In data set [2], the “effect on migration and cell invasion” value was “reduce migration and cell invasion”. Moreover, the neurotoxic effects entry in data set [3] was “without neurotoxic effects”.
